# In patent US10385057B2, “Pyrazole compounds and methods of making and using same” (Lundbeck La Jolla Research Center, Inc., priority 2015, dated 2019):
# How the values were obtained:
# MAGL = molecular target: T1, MAGL (Mus musculus, UniProt O35678); assay: In vitro competitive activity-based protein profiling, mouse MAGL; assay type: biochemical; settings: for inhibition at 1 µM: read-out: MAGL % inh. 1 μM (mouse)
# T1 construct: mouse brain membrane fraction or cell lysates for mouse assays; from tissue
# T1 sequence (O35678 1-303): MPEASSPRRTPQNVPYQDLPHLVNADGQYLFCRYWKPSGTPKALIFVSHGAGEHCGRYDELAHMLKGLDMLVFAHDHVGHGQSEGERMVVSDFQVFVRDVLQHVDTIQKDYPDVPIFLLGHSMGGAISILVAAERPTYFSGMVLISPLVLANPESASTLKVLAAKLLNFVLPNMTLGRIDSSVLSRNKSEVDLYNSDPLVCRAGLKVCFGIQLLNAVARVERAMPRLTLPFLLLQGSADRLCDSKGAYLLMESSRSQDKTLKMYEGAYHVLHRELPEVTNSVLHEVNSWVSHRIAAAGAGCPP
# Procedure, shortened: (§1)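 Mouse brain membranes or cell lysates (mouse) and human prefrontal cortex or cell membrane fractions (human), 1.0 mg/mL protein, preincubated with inhibitor 30 min at 37 °C, then FP-Rh or HT-01 probe 30 min at 37 °C. SDS-PAGE; MAGL and FAAH activity from in-gel fluorescence band intensity.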
# FAAH = molecular target: T2, FAAH (Mus musculus, UniProt O08914); assay: In vitro competitive activity-based protein profiling, mouse FAAH; assay type: biochemical; settings: for inhibition at 1 µM: read-out: FAAH % inh. 1 μM (mouse)
# T2 construct: mouse brain membrane fraction or cell lysates for mouse assays; from tissue
# T2 sequence (O08914 1-579): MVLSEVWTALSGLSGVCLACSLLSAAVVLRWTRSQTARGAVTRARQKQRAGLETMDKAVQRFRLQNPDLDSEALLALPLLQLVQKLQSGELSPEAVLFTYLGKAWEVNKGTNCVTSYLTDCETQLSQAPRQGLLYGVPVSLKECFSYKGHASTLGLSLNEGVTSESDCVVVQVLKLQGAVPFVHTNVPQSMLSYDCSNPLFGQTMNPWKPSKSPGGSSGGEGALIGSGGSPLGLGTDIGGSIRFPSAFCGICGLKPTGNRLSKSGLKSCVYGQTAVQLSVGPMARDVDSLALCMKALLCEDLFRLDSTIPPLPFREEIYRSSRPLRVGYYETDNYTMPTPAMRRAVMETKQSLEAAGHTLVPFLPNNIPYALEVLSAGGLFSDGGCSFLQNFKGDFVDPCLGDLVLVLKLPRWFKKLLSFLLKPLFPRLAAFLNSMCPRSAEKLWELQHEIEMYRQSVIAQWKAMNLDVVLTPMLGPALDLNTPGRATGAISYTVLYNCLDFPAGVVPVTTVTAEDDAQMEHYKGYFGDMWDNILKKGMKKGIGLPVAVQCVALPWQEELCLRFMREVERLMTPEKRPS
# Procedure, shortened: as §1
SMILES,IC50 (MAGL) [nM],inhibition at 1 µM (MAGL) [%],IC50 (FAAH) [nM],inhibition at 1 µM (FAAH) [%]
"O=C(N1CC2CN(Cc3cccc(N4CCCC4)c3)CC2C1)n1cc(C(F)(F)F)cn1 (centres unmarked) [Example 144, (5-(3-(pyrrolidin-1-yl)benzyl)hexahydropyrrolo[3,4-c]pyrrol-2(1H)-yl)(4-(trifluoromethyl)-1H-pyrazol-1-yl)methanone]",≤ 100,≥ 75,≤ 100,≥ 75
"O=C(N1CC2CN(Cc3cccc(N4CCOCC4)c3)CC2C1)n1cc(C(F)(F)F)cn1 (centres unmarked) [Example 145, (5-(3-morpholinobenzyl)hexahydropyrrolo[3,4-c]pyrrol-2(1H)-yl)(4-(trifluoromethyl)-1H-pyrazol-1-yl)methanone]",≤ 100,≥ 75,≤ 100,≥ 75
"O=C(N1CC2CN(Cc3ccc(F)cc3)CC2C1)n1cc(C(F)(F)F)cn1 (centres unmarked) [Example 146, (5-(4-fluorobenzyl)hexahydropyrrolo[3,4-c]pyrrol-2(1H)-yl)(4-(trifluoromethyl)-1H-pyrazol-1-yl)methanone]",≤ 100,≥ 75,≤ 100,≥ 75
"Cc1ccc(CN2CC3CN(C(=O)n4cc(C(F)(F)F)cn4)CC3C2)cc1 (centres unmarked) [Example 147, (5-(4-methylbenzyl)hexahydropyrrolo[3,4-c]pyrrol-2(1H)-yl)(4-(trifluoromethyl)-1H-pyrazol-1-yl)methanone]",≤ 100,≥ 75,≤ 100,≥ 75
"COc1ccc(CN2CC3CN(C(=O)n4cc(C(F)(F)F)cn4)CC3C2)cc1 (centres unmarked) [Example 148, (5-(4-methoxybenzyl)hexahydropyrrolo[3,4-c]pyrrol-2(1H)-yl)(4-(trifluoromethyl)-1H-pyrazol-1-yl)methanone]",100 to 1000,≥ 75,≤ 100,≥ 75
"O=C(N1CC2CN(Cc3cccc(Cl)c3)CC2C1)n1cc(C(F)(F)F)cn1 (centres unmarked) [Example 149, (5-(3-chlorobenzyl)hexahydropyrrolo[3,4-c]pyrrol-2(1H)-yl)(4-(trifluoromethyl)-1H-pyrazol-1-yl)methanone]",100 to 1000,≥ 75,≤ 100,≥ 75
"O=C(N1CC2CN(Cc3cccc(F)c3)CC2C1)n1cc(C(F)(F)F)cn1 (centres unmarked) [Example 150, (5-(3-fluorobenzyl)hexahydropyrrolo[3,4-c]pyrrol-2(1H)-yl)(4-(trifluoromethyl)-1H-pyrazol-1-yl)methanone]",≤ 100,≥ 75,≤ 100,≥ 75
"O=C(N1CC2CN(Cc3ccccc3Cl)CC2C1)n1cc(C(F)(F)F)cn1 (centres unmarked) [Example 151, (5-(2-chlorobenzyl)hexahydropyrrolo[3,4-c]pyrrol-2(1H)-yl)(4-(trifluoromethyl)-1H-pyrazol-1-yl)methanone]",≤ 100,≥ 75,≤ 100,≥ 75
"O=C(N1CC2CN(Cc3ccccc3F)CC2C1)n1cc(C(F)(F)F)cn1 (centres unmarked) [Example 152, (5-(2-fluorobenzyl)hexahydropyrrolo[3,4-c]pyrrol-2(1H)-yl)(4-(trifluoromethyl)-1H-pyrazol-1-yl)methanone]",≤ 100,≥ 75,≤ 100,≥ 75
"Cc1ccccc1CN1CC2CN(C(=O)n3cc(C(F)(F)F)cn3)CC2C1 (centres unmarked) [Example 153, (5-(2-methylbenzyl)hexahydropyrrolo[3,4-c]pyrrol-2(1H)-yl)(4-(trifluoromethyl)-1H-pyrazol-1-yl)methanone]",≤ 100,≥ 75,≤ 100,≥ 75
"COc1ccccc1CN1CC2CN(C(=O)n3cc(C(F)(F)F)cn3)CC2C1 (centres unmarked) [Example 154, (5-(2-methoxybenzyl)hexahydropyrrolo[3,4-c]pyrrol-2(1H)-yl)(4-(trifluoromethyl)-1H-pyrazol-1-yl)methanone]",≤ 100,≥ 75,≤ 100,≥ 75
"O=C(N1CC2CN(Cc3ccccc3C(F)(F)F)CC2C1)n1cc(C(F)(F)F)cn1 (centres unmarked) [Example 155, (4-(trifluoromethyl)-1H-pyrazol-1-yl)(5-(2-(trifluoromethyl)benzyl)hexahydropyrrolo[3,4-c]pyrrol-2(1H)-yl)methanone]",≤ 100,≥ 75,≤ 100,≥ 75
"O=C(N1CC2CN(Cc3ccccc3N3CCCC3)CC2C1)n1cc(C(F)(F)F)cn1 (centres unmarked) [Example 156, (5-(2-(pyrrolidin-1-yl)benzyl)hexahydropyrrolo[3,4-c]pyrrol-2(1H)-yl)(4-(trifluoromethyl)-1H-pyrazol-1-yl)methanone]",≤ 100,≥ 75,100 to 1000,≥ 75
"O=C(N1CC2CN(Cc3ccccc3N3CCOCC3)CC2C1)n1cc(C(F)(F)F)cn1 (centres unmarked) [Example 157, (5-(2-morpholinobenzyl)hexahydropyrrolo[3,4-c]pyrrol-2(1H)-yl)(4-(trifluoromethyl)-1H-pyrazol-1-yl)methanone]",≤ 100,≥ 75,100 to 1000,≥ 75
"CN(Cc1ccc(Oc2ccccc2)cc1)[C@@H]1C[C@@H]2CN(C(=O)n3cc(Cl)cn3)C[C@@H]2C1 [Example 158, (4-chloro-1H-pyrazol-1-yl)(cis-5-(methyl(4-phenoxybenzyl)amino)hexahydrocyclopenta[c]pyrrol-2(1H)-yl)methanone]",,≥ 75,,≥ 75
"CN(Cc1ccc(Oc2ccccc2)cc1)[C@H]1C[C@@H]2CN(C(=O)n3cc(Cl)cn3)C[C@@H]2C1 [Example 159, (4-chloro-1H-pyrazol-1-yl)(trans-5-(methyl(4-phenoxybenzyl)amino)hexahydrocyclopenta[c]pyrrol-2(1H)-yl)methanone]",,≥ 75,,≥ 75
"CN(Cc1ccc(Oc2cccnc2)cc1)[C@@H]1C[C@@H]2CN(C(=O)n3cc(Cl)cn3)C[C@@H]2C1 [Example 160, (4-chloro-1H-pyrazol-1-yl)(cis-5-(methyl(4-(pyridin-3-yloxy)benzyl)amino)hexahydrocyclopenta[c]pyrrol-2(1H)-yl)methanone]",,≥ 75,,≥ 75
"CN(Cc1ccc(Oc2cccnc2)cc1)[C@H]1C[C@@H]2CN(C(=O)n3cc(Cl)cn3)C[C@@H]2C1 [Example 161, (4-chloro-1H-pyrazol-1-yl)(trans-5-(methyl(4-(pyridin-3-yloxy)benzyl)amino)hexahydrocyclopenta[c]pyrrol-2(1H)-yl)methanone]",,≥ 75,,≥ 75
"CN(Cc1cccc(Oc2ccccc2)c1)[C@H]1C[C@@H]2CN(C(=O)n3cc(Cl)cn3)C[C@@H]2C1 [Example 162, (4-chloro-1H-pyrazol-1-yl)(trans-5-(methyl(3-phenoxybenzyl)amino)hexahydrocyclopenta[c]pyrrol-2(1H)-yl)methanone]",≤ 100,≥ 75,≤ 100,≥ 75
"CN(Cc1cccc(Oc2cccnc2)c1)[C@H]1C[C@@H]2CN(C(=O)n3cc(Cl)cn3)C[C@@H]2C1 [Example 163, (4-chloro-1H-pyrazol-1-yl)(trans-5-(methyl(3-(pyridin-3-yloxy)benzyl)amino)hexahydrocyclopenta[c]pyrrol-2(1H)-yl)methanone]",≤ 100,≥ 75,≤ 100,≥ 75
"CN(Cc1cccc(Oc2ccccc2)c1)[C@@H]1C[C@@H]2CN(C(=O)n3cc(Cl)cn3)C[C@@H]2C1 [Example 164, (4-chloro-1H-pyrazol-1-yl)(cis-5-(methyl(3-phenoxybenzyl)amino)hexahydrocyclopenta[c]pyrrol-2(1H)-yl)methanone]",≤ 100,≥ 75,≤ 100,≥ 75
"CN(Cc1cccc(Oc2cccnc2)c1)[C@@H]1C[C@@H]2CN(C(=O)n3cc(Cl)cn3)C[C@@H]2C1 [Example 165, (4-chloro-1H-pyrazol-1-yl)(cis-5-(methyl(3-(pyridin-3-yloxy)benzyl)amino)hexahydrocyclopenta[c]pyrrol-2(1H)-yl)methanone]",100 to 1000,≥ 75,≤ 100,≥ 75
